Experimental data reported in PubChem BioAssay AID1508591.

Details: rat; liver microsomes; pH 7.4; 15.0 min; 1.0 µM

Question: Which half-life does the source give for `Cc1cccc(N2CCN(c3nc4ccccc4c4nnc(C)n34)CC2)c1C` here?
Answer: 17.6 min

Question: With `Cc1ccc(C2=CSC(NC(=O)CSc3nncn3C)=NN2)cc1` as the compound, how does the half-life read?
Answer: 1.8 min

Question: For `COc1ccc(-c2csc(N3CCC(C(N)=O)CC3)n2)cc1`, which half-life is on record?
Answer: 4.68 min

Question: For `CCn1c(=O)cc(OCC(=O)N2CCN(c3cccc(Cl)c3)CC2)c2ccccc21`, which half-life is on record?
Answer: 2.66 min

Question: With `COC[C@@H]1CN(C(=O)c2nn(C)c3ccccc23)C[C@H]1c1nc(C)no1` as the compound, how does the half-life read?
Answer: 25.7 min

Question: For `CC(=O)N1CCc2c(sc3c2c(=O)n(-c2ccccc2Cl)c(=O)n3Cc2cccc(C)c2)C1`, which half-life is on record?
Answer: 1.41 min

Question: With `CS(=O)(=O)CCNCc1ccc(-c2ccc3ncnc(Nc4ccc(OCc5cccc(F)c5)c(Cl)c4)c3c2)o1` as the compound, how does the half-life read?
Answer: 7.65 min

Question: Which half-life does the source give for `CC(C)NC(=O)c1nc(-c2ccc(Cl)nc2)c2ccccn12` here?
Answer: 19.6 min

Question: With `O=c1c(-c2ccc(O)cc2)coc2cc(O)cc(O)c12` as the compound, how does the half-life read?
Answer: > 30 min

Question: For `Cc1ccc(NC(=O)c2cc(-c3ccc[nH]3)n[nH]2)cc1F`, which half-life is on record?
Answer: 6.16 min

Question: With `NC(=O)C1CCN(c2ncc(-c3ccc4c(c3)OCO4)s2)CC1` as the compound, how does the half-life read?
Answer: 7.65 min

Question: For `O=C1CCC(C(=O)N2CCSCC2)CN1Cc1ccc(Cl)cc1` (stereo unspecified), which half-life is on record?
Answer: 10 min

Question: With `COc1cc(-c2cn(C)c(=O)c3cnccc23)c(OC)cc1CN(C)C` as the compound, how does the half-life read?
Answer: > 30 min

Question: With `CCN(CC)[S+](=O)([O-])c1cc(NC(=O)c2[nH]c(C)c(C(C)=O)c2C)ccc1OC` as the compound, how does the half-life read?
Answer: 4.7 min

Question: For `CN(Cc1cccs1)c1nc(-c2ccccc2C(F)(F)F)nc2ccccc12`, which half-life is on record?
Answer: 1.98 min

Question: Which half-life does the source give for `CSc1ccc(-c2cnc(N3CCC(C(N)=O)CC3)s2)cc1` here?
Answer: 1.53 min

Question: With `CCN(CC)CCOc1ccc2c(=O)c3ccc(Cl)cc3n(CCN(CC)CC)c2c1` as the compound, how does the half-life read?
Answer: 7.9 min

Question: For `CCNC(=O)c1coc(COc2ccc3c(c2)C(c2ccc(F)cc2)N(C(=O)CC(C)C)CC3)n1` (stereo unspecified), which half-life is on record?
Answer: 1.55 min

Question: For `CCN(CC)CCOc1ccc(Cc2ccccc2)cc1`, which half-life is on record?
Answer: 1.73 min

Question: Which half-life does the source give for `CCOc1ccc(CNc2ccc3c(c2)ncn3C)cc1` here?
Answer: 21 min

Question: For `COc1ccc(-n2nc3c(N4CCCC(C(=O)NCCc5ccc(C)cc5)C4)nnc(C)c3c2C)cc1` (stereo unspecified), which half-life is on record?
Answer: 2.6 min

Question: For `Cc1ccc(C(=O)N2CCc3cc(-c4nc(NC(=O)Cc5ccc6c(c5)OCO6)sc4C)ccc32)cc1`, which half-life is on record?
Answer: 6 min

Question: For `COCCNC(=O)c1ccc(-c2ccc(N3CCCCC3)nc2)cc1`, which half-life is on record?
Answer: 3.26 min

Question: Which half-life does the source give for `Cc1cnc(N2CCC(C(N)=O)CC2)nc1-c1cccc(N(C)C)c1` here?
Answer: 8.45 min

Question: Which half-life does the source give for `CCOc1ccc(NC(=O)CC2C(=O)N(c3ccc(F)cc3)C(=O)N2CCc2sccc2C)cc1` (stereo unspecified) here?
Answer: 1.33 min

Question: Which half-life does the source give for `COC(=O)c1cccc(NC(=O)c2cnc(-c3ccc(F)cc3)nc2-c2ccncc2)c1` here?
Answer: 9.09 min

Question: For `COc1cc(-c2nc(-c3ccccc3)c(-c3cccs3)[nH]2)cc(OC)c1O`, which half-life is on record?
Answer: > 30 min

Question: Which half-life does the source give for `CNc1oc(-c2cccc3ccccc23)nc1C#N` here?
Answer: 17.7 min

Question: For `Cc1ccc(S(=O)(=O)Nc2cnccc2C(=O)Nc2ccc(-c3nc4ccccc4[nH]3)cc2)cc1`, which half-life is on record?
Answer: 14 min

Question: Which half-life does the source give for `COc1ccccc1Nc1ccnc(N2CCN(C(=O)c3ccc(C)cc3)CC2)n1` here?
Answer: 5.68 min

Question: For `Cc1c(-c2cccc(NC(=O)c3ccc(F)c(F)c3)c2)nc2ncccn12`, which half-life is on record?
Answer: 12.6 min

Question: Which half-life does the source give for `COc1cccc(CNc2ccc(S(=O)(=O)Nc3ccc(C)nc3)cc2)c1O` here?
Answer: 16 min

Question: With `Cn1c2cc(S(C)=O)sc2c2cnn(Cc3cccc(N)c3)c(=O)c21` (stereo unspecified) as the compound, how does the half-life read?
Answer: > 30 min

Question: For `O=c1cc(CSc2ccc(Cl)cc2)nc(-c2ccccn2)[nH]1`, which half-life is on record?
Answer: 1.52 min

Question: With `CCOc1ccc(CNC(=O)CCCn2nc(C)c3c(C)n(-c4ccc(C)cc4)nc3c2=O)cc1` as the compound, how does the half-life read?
Answer: 3.01 min

Question: Which half-life does the source give for `CC(=O)c1c(C)[nH]c(C(=O)Nc2ccc(C)c(S(=O)(=O)Nc3ccc(Br)cc3)c2)c1C` here?
Answer: 19 min

Question: For `Cc1cc(NS(=O)(=O)c2ccc(NC(=O)Cc3ccc(F)c(Cl)c3)cc2)no1`, which half-life is on record?
Answer: > 30 min

Question: Which half-life does the source give for `CC(=O)Nc1ccc(C(=O)Nc2ccc3c(c2)N(C2CCCC2)C(=O)c2ccccc2S3)cc1` here?
Answer: 2.21 min

Question: Which half-life does the source give for `COc1ccc(Nc2cc3c(nc2OC)nc(CCc2ccccc2)n3C)cn1` here?
Answer: 19.5 min

Question: Which half-life does the source give for `O=C(c1ccc(C(=O)N2CCC(N3CCCC3)CC2)c(Nc2ccccc2)c1)N1CCC(N2CCCC2)CC1` here?
Answer: > 30 min

Question: Which half-life does the source give for `CCC(CC)(NC(=O)C(C)C)C(=O)N[C@@H](CCCN=C(N)N)C(=O)NC1(C(=O)NC(c2ccc(F)cc2)c2ccc(F)cc2)CCCC1` here?
Answer: > 30 min

Question: For `CCOc1ccc(Nc2nc(C)c(NC(=O)c3ccc(C)cc3)c(Nc3ccc(OCC)cc3)n2)cc1`, which half-life is on record?
Answer: 8.86 min

Question: Which half-life does the source give for `O=S(=O)(Nc1ccc2ccccc2c1)c1ccc(NCc2cccc(Cl)c2O)cc1` here?
Answer: 13 min

Question: Which half-life does the source give for `O=C(Nc1ncc(Cc2ccc(C(F)(F)F)cc2)s1)c1cnc(-c2ccccc2)s1` here?
Answer: > 30 min

Question: For `CCc1cccc(C)c1Nc1c(-c2ccc(N(C)C)cc2)nc2ncccn12`, which half-life is on record?
Answer: 4.23 min

Question: For `COc1ccc(-c2cc(-c3ccccc3)nc(SCC(=O)Nc3ccccc3C)c2C#N)cc1`, which half-life is on record?
Answer: 2.47 min

Question: With `FC(F)(F)c1cc(-c2ccc(CNc3nc(-c4ccccc4C(F)(F)F)nc4ccsc34)cc2)ccn1` as the compound, how does the half-life read?
Answer: 14.8 min

Question: For `Cc1ccc(C(=O)N2CCc3c(nc4cc(-c5ccccc5)[nH]n4c3=O)C2)cn1`, which half-life is on record?
Answer: > 30 min

Question: For `Cc1ccc(S(=O)(=O)Nc2cc(C(=O)Nc3nc(-c4ccccc4)cs3)ccc2Cl)cc1`, which half-life is on record?
Answer: 15 min

Question: Which half-life does the source give for `O=[S+]([O-])(Nc1ccc(C2CCNCC2)cc1)c1ccc(NCc2ccc(Cl)cc2O)cc1` here?
Answer: > 30 min

Question: Which half-life does the source give for `Cc1ccc(S(=O)(=O)Nc2cc(C)ccc2C(=O)Nc2nc(-c3ccccc3)cs2)cc1` here?
Answer: 2.5 min

Question: For `OCc1ccc(-c2ccc(-c3ccc(CO)s3)o2)s1`, which half-life is on record?
Answer: 6.18 min

Question: Which half-life does the source give for `O=[S+]([O-])(Nc1ccc(N2CCNCC2)cc1)c1ccc(NCc2ccc(Cl)cc2O)cc1` here?
Answer: > 30 min

Question: For `COc1ccc(-c2csc(C3=C(O)CN(Cc4ccc(Cl)cc4)C3=N)n2)cc1OC`, which half-life is on record?
Answer: 12 min

Question: Which half-life does the source give for `CNS(=O)(=O)c1cc(-c2nn3c(C)nnc3c3ccccc23)ccc1C` here?
Answer: > 30 min

Question: For `O=c1c2c([nH]c3ccc(Br)cc13)CCCC2`, which half-life is on record?
Answer: 15.9 min

Question: Which half-life does the source give for `CC(=O)c1c(C)n(-c2ccccc2)c2ccc(O)cc12` here?
Answer: 17 min

Question: With `COC(=O)c1ccccc1NC(=O)c1ccccc1OC(F)F` as the compound, how does the half-life read?
Answer: 2.8 min

Question: For `Cc1nc2c(-c3ccccc3)cnn2c(N)c1-c1ccccc1`, which half-life is on record?
Answer: > 30 min

Question: With `Cn1cnc2c(F)c(Nc3ccc(Br)cc3Cl)c(C(=O)NOCCO)cc21` as the compound, how does the half-life read?
Answer: > 30 min

Question: With `COc1ccc2cc1Oc1ccc(cc1)C[C@@H]1c3c(cc(OC)c4c3Oc3cc5c(cc3O4)CCN[C@H]5C2)CCN1C` as the compound, how does the half-life read?
Answer: > 30 min

Question: Which half-life does the source give for `CC(=O)c1c(C)[nH]c(C(=O)Nc2ccc(C)c(S(=O)(=O)N3CCCCCC3)c2)c1C` here?
Answer: 1.9 min

Question: With `Fc1ccccc1CNCc1ccc(-c2ccnc3[nH]ccc23)cc1` as the compound, how does the half-life read?
Answer: 1.47 min

Question: With `O=C1Nc2ccccc2/C1=C\c1ccc(O)cc1` as the compound, how does the half-life read?
Answer: 14 min

Question: With `CC1=C[C@@H](CNCc2cccnc2)[C@H](C(C)C)C[C@H]1Cc1nnc(-c2ccc([N+](=O)[O-])cc2)o1` as the compound, how does the half-life read?
Answer: 2.13 min

Question: With `CCN1CCC(N(Cc2ccc3c(c2)OCO3)C(=O)Nc2cc(Cl)ccc2C(=O)OC)CC1` as the compound, how does the half-life read?
Answer: 6.72 min

Question: For `O=C1Nc2c(Cl)cccc2/C1=C\c1cc(Cl)c(O)c(Cl)c1`, which half-life is on record?
Answer: > 30 min

Question: Which half-life does the source give for `COc1cccc(NS(=O)(=O)c2ccc(NCc3cccc(OC)c3O)cc2)c1` here?
Answer: 4 min

Question: Which half-life does the source give for `CCN(CC)S(=O)(=O)c1ccc(N2CCCC2)c(NS(=O)(=O)c2ccccc2)c1` here?
Answer: 1.1 min

Question: For `NC(=O)c1sc2nc3c(c(-c4cccs4)c2c1N)CCCC3`, which half-life is on record?
Answer: 2 min

Question: With `Cn1cc(C2=C(c3cn(C)c4cc([N+](=O)[O-])ccc34)C(=O)NC2=O)c2ccccc21` as the compound, how does the half-life read?
Answer: 4.05 min
